Results published in the NIST ThermoML archive (doi:10.1021/je7007022).
± gives the expanded uncertainty stated by the source.

Assay: excess molar enthalpy (molar enthalpy of mixing); xn = mol fraction of the nth substance listed
Conditions: 303.15 K, 101 kPa, Liquid, Flow calorimetry

## O=CO [formic acid] + C1COCCO1
x2 = 0.056
  excess molar enthalpy: -0.0504 ± 0.00215 kcal/mol
x2 = 0.114
  excess molar enthalpy: -0.096 ± 0.00406 kcal/mol
x2 = 0.225
  excess molar enthalpy: -0.194 ± 0.00789 kcal/mol
x2 = 0.301
  excess molar enthalpy: -0.275 ± 0.0112 kcal/mol
x2 = 0.383
  excess molar enthalpy: -0.35 ± 0.0143 kcal/mol
x2 = 0.472
  excess molar enthalpy: -0.401 ± 0.0163 kcal/mol
x2 = 0.58
  excess molar enthalpy: -0.418 ± 0.017 kcal/mol
x2 = 0.705
  excess molar enthalpy: -0.354 ± 0.0143 kcal/mol
x2 = 0.762
  excess molar enthalpy: -0.274 ± 0.0112 kcal/mol
x2 = 0.836
  excess molar enthalpy: -0.182 ± 0.00741 kcal/mol
x2 = 0.917
  excess molar enthalpy: -0.0574 ± 0.00239 kcal/mol
